# Measured values: patent US9345247B2, “Azaindole carboxylic acid amides and azaindole thiocarboxylic acid amides for use as insecticides and acaricides” (BAYER CROPSCIENCE AG, priority 2012, dated 2016)
# Like-named read-outs stand apart in the source and are kept apart here.
# What was measured:
# [1] = system: larvae of the mustard beetle (Phaedon cochleariae); assay: Phaedon cochleariae spray test (PHAECO); assay type: in vivo; details: for efficacy / pest or weed control at 100 g/ha: spray, after 7 days; for pest or weed control at 100 g/ha / percent efficacy (larval mortality) at 20 g/ha: Phaedon cochleariae, 168 h; for pest or weed control at 100 g/ha: read-out: efficacy; for percent efficacy (larval mortality) at 20 g/ha: PHAECO, 20 g of ai/ha, 7 d, read-out: % Efficacy dat
# Protocol: Phaedon cochleariae—Spray Test (PHAECO)
# To produce a suitable preparation of active compound, 1 part by weight of active compound is mixed with the stated amounts of solvent and emulsifier, and the concentrate is diluted with emulsifier-containing water to the desired concentration.
# Discs of Chinese cabbage leaves (Brassica pekinensis) are sprayed with an active compound formulation of the desired concentration and, after drying, populated with larvae of the mustard beetle (Phaedon cochleariae).
# After 7 days, the efficacy in % is determined. 100% means that all the beetle larvae have been killed; 0% means that no beetle larvae have been killed.
# After the stated period of time, the effect in % is determined 100% means that all the beetle larvae have been killed; 0% means that no beetle larvae have been killed.
# [2] = log P by HPLC on reversed-phase column (C18), EEC directive 79/831 Annex V.A8; assay type: physicochemical; details: for chromatographic logP: reversed-phase HPLC column (C18)
# Protocol: a) The determination of the W by LC-MS in the acidic range is effected at pH 2.7, acetonitrile (contains 0.1% formic acid) and water as eluents; linear gradient from 10% acetonitrile to 95% acetonitrile, instrument: Agilent 1100 LC-System, Agilent MSD System, HTS PAL. The log P values reported in the tables and Preparation Examples above were determined in accordance with EEC directive 79/831 Annex V.A8 by HPLC (High Performance Liquid Chromatography) using a reversed-phase column (C18). Temperature 43° C. The calibration is effected with unbranched alkan-2-ones (having 3 to 16 carbon atoms), for which the log P values are known.
# [3] = HPLC, acidic range pH 2.7, 43° C.
# [4] = HPLC, acidic range pH 2.7, 43° C., read-out: log p
# [5] = pH 2.7, final compounds of the synthesis examples, read-out: log P (HPLC-MS)
SMILES,efficacy ([1]; 100 g/ha) [%],"log p [2, 3]",further results
CCn1c(C(=O)NC(c2cc(Cl)c(F)c(Cl)c2F)C(F)(F)F)cc2cc(C(=O)NC3CC3)c(Cl)nc21 (stereo not shown) [Compound 18],100,4.43,–
CCn1c(C(=O)NC(c2cccc(C(F)(F)F)c2)C(F)(F)F)cc2cc(C(=O)NCC(=O)OC)c(Cl)nc21 (stereo not shown) [Compound 44],–,3.58,–
CCn1c(C(=O)NC(c2cccc(C(F)(F)F)c2)C(F)(F)F)cc2cc(C(=O)Nc3ccc(Cl)cn3)c(Cl)nc21 (stereo not shown) [Compound 40],83,4.88,efficacy ([1]; 500 g/ha): 100%
CCn1c(C(=O)NC(c2ccc(Cl)c(C(F)(F)F)c2)C(F)(F)F)c(Br)c2cc(C(=O)NC3(C(N)=S)CC3)c(C)nc21 (stereo not shown) [Compound 98],–,–,"chromatographic logP [2, 4]: 3.97"
CCn1c(C(=O)NC(c2cccc(C(F)(F)F)c2)C(F)(F)F)cc2cc(C(=O)NCc3ncccn3)c(Cl)nc21 (stereo not shown) [Compound 47],100,3.39,–
CCn1c(C(=O)NC(c2cc(Cl)c(F)c(Cl)c2)C(F)(F)F)cc2cc(C(=O)NC3CC3)c(C(F)(F)F)nc21 (stereo not shown) [Compound 86],–,4.42,–
C#CCn1c(C(=O)NC(c2cccc(C(F)(F)F)c2)C(F)(F)F)cc2cc(C(=O)NC3(C#N)CC3)c(C)nc21 (stereo not shown) [Compound 81],–,3.34,–
CCC(=O)NCc1cc2cc(C(=O)NC(c3cccc(C(F)(F)F)c3)C(F)(F)F)n(CC)c2nc1C (stereo not shown) [Compound 93],100,3.45,–
CCn1c(C(=O)NC(c2ccc(Cl)c(Cl)c2)C(F)(F)F)cc2cc(C(=O)NC3CCC3)c(Cl)nc21 (stereo not shown) [Compound 54],–,4.47,–
"CCn1c(C(=O)NC(c2cccc(C(F)(F)F)c2)C(F)(F)F)cc2cc(CNC(C)=O)c(C)nc21 (stereo not shown) [Compound 94, 5-(Acetamidomethyl)-1-ethyl-6-methyl-N-{2,2,2-trifluoro-1-[3-(trifluoromethyl)phenyl]ethyl}-1H-pyrrolo[2,3-b]pyridine-2-carboxamide]",–,–,"pest or weed control at 100 g/ha ([1]; 100 g/ha): 100%; chromatographic logP [2, 5]: 3.16"
CCn1c(C(=O)NC(c2ccc(Cl)c(C(F)(F)F)c2)C(F)(F)F)cc2cc(C(=O)NC3(C(N)=S)CC3)c(C)nc21 (stereo not shown) [Compound 89],–,3.72,–
CCCNC(=O)c1cc2cc(C(=O)NC(c3cccc(C(F)(F)F)c3)C(F)(F)F)n(CC)c2cc1Cl (stereo not shown) [reference compound],–,–,percent efficacy (larval mortality) at 20 g/ha [1]: 67%
CCn1c(C(=O)NC(c2ccc(Cl)c(C(F)(F)F)c2)C(F)(F)F)cc2cc(C(=O)NC3(C#N)CC3)c(Cl)nc21 (stereo not shown) [Compound 83],–,4.02,–
CCn1c(C(=O)NC(c2cc(Cl)c(F)c(Cl)c2F)C(F)(F)F)cc2cc(C(=O)NC(C)C)c(Cl)nc21 (stereo not shown) [Compound 19],–,4.62,–
CCn1c(C(=O)NC(c2ccc(Cl)c(C(F)(F)F)c2)C(F)(F)F)cc2cc(C(=O)NC3CC3)c(Cl)nc21 (stereo not shown) [Compound 88],–,4.06,–
C#CCn1c(C(=O)NC(c2cccc(C(F)(F)F)c2)C(F)(F)F)cc2cc(C(=O)Nc3ccc(Cl)cn3)c(Cl)nc21 (stereo not shown) [Compound 61],83,4.49,–
"CCn1c(C(=O)NC(c2ccc(F)c(C(F)(F)F)c2)C(F)(F)F)cc2nc(C(=O)NC3CC3)ccc21 (stereo not shown) [Compound 2, N^5-Cyclopropyl-1-ethyl-N^2-{2,2,2-trifluoro-1-[4-fluoro-3-(trifluoromethyl)phenyl]ethyl}-1H-pyrrolo[3,2-b]pyridine-2,5-dicarboxamide]",–,–,"chromatographic logP [2, 5]: 3.78"
CCCNC(=O)c1cc2cc(C(=O)NC(c3cccc(C(F)(F)F)c3)C(F)(F)F)n(CC)c2nc1Cl (stereo not shown) [Compound 34],–,–,"pest or weed control at 100 g/ha ([1]; 100 g/ha): 100%; percent efficacy (larval mortality) at 20 g/ha [1]: 100%; chromatographic logP [2, 4]: 3.99"
CCn1c(C(=O)NC(c2ccc(Cl)c(C(F)(F)F)c2)C(F)(F)F)cc2cc(C(=O)NC3(C(N)=S)CC3)c(Cl)nc21 (stereo not shown) [Compound 84],–,3.90,–
CCn1c(C(=O)NC(c2cccc(C(F)(F)F)c2)C(F)(F)F)cc2cc(C(=O)NC(CF)CF)c(C)nc21 (stereo not shown) [Compound 8],100,3.67,–
CCn1c(C(=O)NC(c2cc(Cl)c(F)c(Cl)c2)C(F)(F)F)cc2cc(C(=O)NC3CCC3)c(Cl)nc21 (stereo not shown) [Compound 48],–,4.62,–
CCn1c(C(=O)NC(c2cc(Cl)c(F)c(Cl)c2)C(F)(F)F)cc2cc(C(=O)NC(C)C)c(Cl)nc21 (stereo not shown) [Compound 21],–,4.44,–
C#CCn1c(C(=O)NC(c2cc(Cl)c(F)c(Cl)c2)C(F)(F)F)cc2cc(C(=O)NC3CC3)c(C(F)(F)F)nc21 (stereo not shown) [Compound 79],–,4.04,–
CN(C(=O)c1cc2cc(C(=O)NC3CC3)c(Cl)nc2n1C)C(c1cccc(C(F)(F)F)c1)C(F)(F)F (stereo not shown) [Compound 96],–,–,"pest or weed control at 100 g/ha ([1]; 100 g/ha): 100%; chromatographic logP [2, 4]: 3.63"
CCn1c(C(=O)NC(c2cccc(C(F)(F)F)c2)C(F)(F)F)cc2cc(C(=O)NCC(F)F)c(Cl)nc21 (stereo not shown) [Compound 13],100,3.79,–

SMILES,efficacy ([1]; 100 g/ha) [%],"log p [2, 3]",further results
CCn1c(C(=O)NC(c2ccc(Cl)c(C(F)(F)F)c2)C(F)(F)F)cc2cc(C(=O)NC3(C#N)CC3)c(C)nc21 (stereo not shown) [Compound 90],–,3.91,–
CCn1c(C(=O)NC(c2cc(Cl)c(F)c(Cl)c2F)C(F)(F)F)cc2cc(C(=O)NC3(C(N)=S)CC3)c(C(F)(F)F)nc21 (stereo not shown) [Compound 82],–,4.45,–
CCn1c(C(=O)NC(c2cc(Cl)c(F)c(Cl)c2)C(F)(F)F)cc2cc(C(=O)NC3CC3)c(Cl)nc21 (stereo not shown) [Compound 20],100,4.23,–
CCNC(=O)c1cc2cc(C(=O)NC(c3cccc(C(F)(F)F)c3)C(F)(F)F)n(CC)c2nc1Cl (stereo not shown) [Compound 52],100,3.70,–
CCn1c(C(=O)NC(c2cc(Cl)c(F)c(Cl)c2)C(F)(F)F)cc2cc(C(=O)NC3(C#N)CC3)c(C(F)(F)F)nc21 (stereo not shown) [Compound 77],–,4.36,–
CCn1c(C(=O)NC(c2cccc(C(F)(F)F)c2)C(F)(F)F)cc2cc(C(=O)NC(C)CF)c(Cl)nc21 (stereo not shown) [Compound 36],–,3.83,–
CCn1c(C(=O)NC(c2ccc(Cl)c(Cl)c2)C(F)(F)F)cc2cc(C(=O)NC(C)C)c(Cl)nc21 (stereo not shown) [Compound 56],–,4.29,–
CCn1c(C(=O)NC(c2cccc(C(F)(F)F)c2)C(F)(F)F)cc2cc(C(=O)NC3CC3)cnc21 (stereo not shown) [Compound 3],100,3.19,–
C#CCn1c(C(=O)NC(c2cc(Cl)c(F)c(Cl)c2F)C(F)(F)F)cc2cc(C(=O)NC3(C#N)CC3)c(Cl)nc21 (stereo not shown) [Compound 80],–,3.99,–
CCn1c(C(=O)NC(c2cccc(C(F)(F)F)c2)C(F)(F)F)cc2cc(CNC(=O)C3CC3)c(C)nc21 (stereo not shown) [Compound 92],–,3.59,–
CCn1c(C(=O)NC(c2cccc(C(F)(F)F)c2)C(F)(F)F)cc2cc(C(=O)NC)c(Cl)nc21 (stereo not shown) [Compound 51],100,3.40,–
CCn1c(C(=O)NC(c2ccc(Cl)c(C(F)(F)F)c2)C(F)(F)F)cc2cc(C(=O)NC3CC3)c(C)nc21 (stereo not shown) [Compound 91],–,3.90,–
C#CCNC(=O)c1cc2cc(C(=O)NC(c3cccc(C(F)(F)F)c3)C(F)(F)F)n(CC)c2nc1Cl (stereo not shown) [Compound 45],100,3.69,–
CCn1c(C(=O)NC(c2cc(Cl)c(F)c(Cl)c2F)C(F)(F)F)cc2cc(C(=O)NC3CC3)c(C(F)(F)F)nc21 (stereo not shown) [Compound 87],–,4.66,–
CCn1c(C(=O)NC(c2ccc(F)c(C(F)(F)F)c2)C(F)(F)F)cc2cc(C(=O)NCc3ccccn3)c(Cl)nc21 (stereo not shown) [Compound 55],83,3.32,–
CCn1c(C(=O)NC(c2ccc(F)c(Cl)c2)C(F)(F)F)cc2cc(C(=O)NC3CCC3)c(Cl)nc21 (stereo not shown) [Compound 49],–,4.11,–
CCn1c(C(=O)NC(c2cccc(C(F)(F)F)c2)C(F)(F)F)cc2cc(C(=O)NCC3CC3)c(Cl)nc21 (stereo not shown) [Compound 57],100,4.06,–
CCn1c(C(=O)NC(c2ccc(F)c(C(F)(F)F)c2)C(F)(F)F)cc2cc(C(=O)NC3CCC3)c(Cl)nc21 (stereo not shown) [Compound 46],100,4.20,–
CN(C(=O)c1cc2cc(C(=O)NC3(C#N)CC3)c(Cl)nc2n1C)C(c1cccc(C(F)(F)F)c1)C(F)(F)F (stereo not shown) [Compound 97],–,–,"pest or weed control at 100 g/ha ([1]; 100 g/ha): 100%; chromatographic logP [2, 4]: 3.59"
CCn1c(C(=O)NC(c2cccc(C(F)(F)F)c2)C(F)(F)F)cc2cc(C(=O)NC(C)C)c(Cl)cc21 (stereo not shown) [reference compound],–,–,percent efficacy (larval mortality) at 20 g/ha [1]: 0%
CCn1c(C(=O)NC(c2cccc(C(F)(F)F)c2)C(F)(F)F)cc2cc(C(=O)NC(CF)CF)c(Cl)nc21 (stereo not shown) [Compound 35],–,3.83,–
CCn1c(C(=O)NC(c2cccc(C(F)(F)F)c2)C(F)(F)F)cc2cc(C(=O)NCc3ccccn3)c(Cl)nc21 (stereo not shown) [Compound 37],100,3.18,–
C#CCn1c(C(=O)NC(c2cccc(C(F)(F)F)c2)C(F)(F)F)cc2cc(C(=O)NC(C)C)c(Cl)nc21 (stereo not shown) [Compound 24],100,3.68,efficacy ([1]; 500 g/ha): 100%
CCn1c(C(=O)NC(c2cc(Cl)c(F)c(Cl)c2)C(F)(F)F)cc2cc(C(=O)NC3(C(N)=S)CC3)c(C(F)(F)F)nc21 (stereo not shown) [Compound 78],–,4.25,–
